Assay results as given in patent US9745324B2, “Iminothiadiazepane dioxide compounds as BACE inhibitors, compositions, and their use” (Merck Sharp & Dohme Corp., priority 2013, dated 2017).
Where two headings read alike, the source gives them in different places.

Legend:
[1] = target: soluble human BACE1 catalytic domain (Homo sapiens (Human), UniProt P56817); assay: BACE1 HTRF FRET Assay; assay type: biochemical; conditions: Ki calculated from IC50 using the Cheng-Prusoff equation; QSY7-APPswe-Eu substrate, pH 5.0
soluble human BACE1 catalytic domain, sequence (P56817 75-416): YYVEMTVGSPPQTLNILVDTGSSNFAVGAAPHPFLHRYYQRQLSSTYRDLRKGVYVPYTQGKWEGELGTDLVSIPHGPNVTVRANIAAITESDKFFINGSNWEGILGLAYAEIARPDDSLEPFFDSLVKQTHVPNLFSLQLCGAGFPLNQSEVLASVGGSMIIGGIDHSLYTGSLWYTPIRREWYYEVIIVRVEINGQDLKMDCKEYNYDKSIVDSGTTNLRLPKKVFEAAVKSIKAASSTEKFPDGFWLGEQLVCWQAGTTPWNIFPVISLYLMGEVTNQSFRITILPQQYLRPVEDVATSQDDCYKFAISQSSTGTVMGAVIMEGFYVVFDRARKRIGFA
Source text: Reagents: Na^+-Acetate pH 5.0; 1% Brij-35; Glycerol; Dimethyl Sulfoxide (DMSO); Recombinant human soluble BACE1 catalytic domain (>95% pure); APP Swedish mutant peptide substrate (QSY7-APP^swe-Eu): QSY7-[…]-Europium-amide (SEQ ID 1).
A homogeneous time-resolved FRET assay can be used to determine IC50 values for inhibitors of the soluble human BACE1 catalytic domain. This assay monitors the increase of 620 nm fluorescence that resulted from BACE1 cleavage of an APPswedish APP^swe mutant peptide FRET substrate (QSY7-[…]-Europium-amide (SEQ ID 1)). This substrate contains an N-terminal QSY7 moiety that serves as a quencher of the C-terminal Europium fluorophore (620 nm Em). […] Inhibition of BACE1 cleavage of the QSY7-APP^swe-Eu substrate by inhibitors is manifested as a suppression of 620 nm fluorescence.
Varying concentrations of inhibitors at 3× the final desired concentration in a volume of 10 ul are preincubated with purified human BACE1 catalytic domain (3 nM in 10 μl) for 30 minutes at 30° C. in reaction buffer containing 20 mM Na-Acetate pH 5.0, 10% glycerol, 0.1% Brij-35 and 7.5% DSMO. Reactions are initiated by addition of 10 μl of 600 nM QSY7-APP^swe-Eu substrate (200 nM final) to give a final reaction volume of 30 μl in a 384 well Nunc HTRF plate. The reactions are incubated at 30° C. for 1.5 hours. The 620 nm fluorescence is then read on a Rubystar HTRF plate reader (BMG Labtechnologies) using a 50 millisecond delay followed by a 400 millisecond acquisition time window. Inhibitor IC50 values are derived from non-linear regression analysis of concentration response curves.

[2] = target: purified human autoBACE-2 (Homo sapiens, UniProt Q9Y5Z0); assay: BACE-2 Assay (BACE-HTRF assay); assay type: biochemical; conditions: Ki calculated from IC50 using the Cheng-Prusoff equation, pH 5.0, read-out: BACE2 Ki
purified human autoBACE-2, sequence (Q9Y5Z0 63-518 limits assumed): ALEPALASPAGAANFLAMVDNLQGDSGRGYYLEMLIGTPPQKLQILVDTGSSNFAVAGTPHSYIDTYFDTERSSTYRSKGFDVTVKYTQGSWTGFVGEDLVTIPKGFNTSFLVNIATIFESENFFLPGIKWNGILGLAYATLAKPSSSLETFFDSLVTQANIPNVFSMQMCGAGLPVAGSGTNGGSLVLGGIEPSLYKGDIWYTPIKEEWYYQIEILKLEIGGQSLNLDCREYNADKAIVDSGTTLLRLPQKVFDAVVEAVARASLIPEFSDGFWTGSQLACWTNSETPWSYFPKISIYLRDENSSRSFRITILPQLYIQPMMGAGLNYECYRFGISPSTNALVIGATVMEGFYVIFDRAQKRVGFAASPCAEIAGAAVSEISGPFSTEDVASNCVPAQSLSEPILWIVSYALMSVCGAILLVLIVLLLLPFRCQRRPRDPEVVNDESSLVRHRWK
Protocol: DMSO is present at 5% final concentration in the assay. Following laser excitation of sample wells at 320 nm, the fluorescence signal at 620 nm is collected for 400 ms following a 50 μs delay on a RUBYstar HTRF plate reader (BMG Labtechnologies). Raw RFU data is normalized to maximum (1.0 nM BACE/DMSO) and minimum (no enzyme/DMSO) RFU values. […] The Ki values are calculated from the IC50 using the Cheng-Prusoff equation.

[3] = QSY7-EISEVNLDAEFC-Eu-amide substrate

CC(=O)Nc1ccc(F)c([C@]2(C)CN(C)S(=O)(=O)C(C)(C)C(=N)N2)c1 [Example 35, N-{4-fluoro-3-[(4R)-6-imino-2,4,7,7-tetramethyl-1,1-dioxido-1,2,5-thiadiazepan-4-yl]phenyl}acetamide]
Ki [1]: 5930 nM
Ki [2, 3]: 917 nM

COc1cnc2c(Nc3ccc(F)c([C@]4(C)CN(C)S(=O)(=O)C(C)(C)C(=N)N4)c3)nccc2c1 [Example 43, (R)-4-(2-fluoro-5-((3-methoxy-1,7-naphthyridin-8-yl)amino)phenyl)-6-imino-2,4,7,7-tetramethyl-1,2,5-thiadiazepane 1,1-dioxide]
Ki [1]: 209 nM
Ki ([2]; QSY7-[…]-Eu-amide substrate): 240 nM

C#CCOc1ccc(C(=O)Nc2ccc(F)c([C@]3(C)CN(C)S(=O)(=O)C(C)(C)C(=N)N3)c2)nc1 [Example 36, N-{4-fluoro-3-[(4R)-6-imino-2,4,7,7-tetramethyl-1,1-dioxido-1,2,5-thiadiazepan-4-yl]phenyl}-5-(prop-2-yn-1-yloxy)pyridine-2-carboxamide]
Ki [1]: 15 nM
Ki [2, 3]: 195 nM

CN1C[C@@](C)(c2cc(NC(=O)c3cnccn3)ccc2F)NC(=N)C(C)(C)S1(=O)=O [Example 13, N-{4-fluoro-3-[(4R)-6-imino-2,4,7,7-tetramethyl-1,1-dioxido-1,2,5-thiadiazepan-4-yl]phenyl}pyrazine-2-carboxamide]
Ki [1]: 263 nM
Ki [2, 3]: 110 nM

CN1C[C@@](C)(c2cc(NC(=O)c3ccc(C#N)cn3)ccc2F)NC(=N)C(C)(C)S1(=O)=O [Example 8, 5-cyano-N-{4-fluoro-3-[(4R)-6-imino-2,4,7,7-tetramethyl-1,1-dioxido-1,2,5-thiadiazepan-4-yl]phenyl}pyridine-2-carboxamide]
Ki [1]: 22 nM
Ki [2, 3]: 32 nM

Cc1cc(C#N)cnc1C(=O)Nc1ccc(F)c([C@]2(C)CN(C)S(=O)(=O)C(C)(C)C(=N)N2)c1 [Example 11, 5-cyano-N-{4-fluoro-3-[(4R)-6-imino-2,4,7,7-tetramethyl-1,1-dioxido-1,2,5-thiadiazepan-4-yl]phenyl}-3-methylpyridine-2-carboxamide]
Ki [1]: 24 nM
Ki [2, 3]: 28 nM

CN1C[C@@](C)(c2cc(NC(=O)c3cn4ccsc4n3)ccc2F)NC(=N)C(C)(C)S1(=O)=O [Example 27, N-{4-fluoro-3-[(4R)-6-imino-2,4,7,7-tetramethyl-1,1-dioxido-1,2,5-thiadiazepan-4-yl]phenyl}imidazo[2,1-b][1,3]thiazole-6-carboxamide]
Ki [1]: 285 nM
Ki [2, 3]: 46 nM

CN1C[C@@](C)(c2cc(NC(=O)C(F)F)ccc2F)NC(=N)C(C)(C)S1(=O)=O [Example 28, 2,2-difluoro-N-{4-fluoro-3-[(4R)-6-imino-2,4,7,7-tetramethyl-1,1-dioxido-1,2,5-thiadiazepan-4-yl]phenyl}acetamide]
Ki [1]: 1200 nM
Ki [2, 3]: 354 nM

CN1C[C@@](C)(c2cc(NC(=O)c3cnc(OCCF)cn3)ccc2F)NC(=N)C(C)(C)S1(=O)=O [Example 14, 5-(2-fluoroethoxy)-N-{4-fluoro-3-[(4R)-6-imino-2,4,7,7-tetramethyl-1,1-dioxido-1,2,5-thiadiazepan-4-y]phenyl}pyrazine-2-carboxamide]
Ki [1]: 52 nM
Ki [2, 3]: 217 nM

Cc1nc(C(=O)Nc2ccc(F)c([C@]3(C)CN(C)S(=O)(=O)C(C)(C)C(=N)N3)c2)no1 [Example 15, N-{4-fluoro-3-[(4R)-6-imino-2,4,7,7-tetramethyl-1,1-dioxido-1,2,5-thiadiazepan-4-yl]phenyl}-5-methyl-1,2,4-oxadiazole-3-carboxamide]
Ki [1]: 153 nM
Ki [2, 3]: 27 nM

COc1cnc(C(=O)Nc2ccc(F)c([C@]3(C)CN(C)S(=O)(=O)C(C)(C)C(=N)N3)c2)c(C)n1 [Example 10, N-{4-fluoro-3-[(4R)-6-imino-2,4,7,7-tetramethyl-1,1-dioxido-1,2,5-thiadiazepan-4-yl]phenyl}-5-methoxy-3-methylpyrazine-2-carboxamide]
Ki [1]: 62 nM
Ki [2, 3]: 59 nM

Cc1cc(C(=O)Nc2ccc(F)c([C@]3(C)CN(C)S(=O)(=O)C(C)(C)C(=N)N3)c2)on1 [Example 22, N-{4-fluoro-3-[(4R)-6-imino-2,4,7,7-tetramethyl-1,1-dioxido-1,2,5-thiadiazepan-4-yl]phenyl}-3-methylisoxazole-5-carboxamide]
Ki [1]: 1690 nM
Ki [2, 3]: 1020 nM

COCC(=O)Nc1ccc(F)c([C@]2(C)CN(C)S(=O)(=O)C(C)(C)C(=N)N2)c1 [Example 25, N-{4-fluoro-3-[(4R)-6-imino-2,4,7,7-tetramethyl-1,1-dioxido-1,2,5-thiadiazepan-4-yl]phenyl}-2-methoxyacetamide]
Ki [1]: 756 nM
Ki [2, 3]: 122 nM

CN1C[C@@](C)(c2cc(NC(=O)c3cnc(OCC(F)(F)F)cn3)ccc2F)NC(=N)C(C)(C)S1(=O)=O [Example 12, N-{4-fluoro-3-[(4R)-6-imino-2,4,7,7-tetramethyl-1,1-dioxido-1,2,5-thiadiazepan-4-yl]phenyl}-5-(2,2,2-trifluoroethoxy)pyrazine-2-carboxamide]
Ki [1]: 17 nM
Ki [2, 3]: 171 nM

CN1C[C@@](C)(c2cc(Nc3nccc4cc(C#N)cnc34)ccc2F)NC(=N)C(C)(C)S1(=O)=O [Example 41, (R)-8-((4-fluoro-3-(6-imino-2,4,7,7-tetramethyl-1,1-dioxido-1,2,5-thiadiazepan-4-yl)phenyl)amino)-1,7-naphthyridine-3-carbonitrile]
Ki [1]: 20 nM
Ki ([2]; QSY7-[…]-Eu-amide substrate): 16 nM

CN1C[C@@](C)(c2cc(NC(=O)c3ccc(F)cn3)ccc2F)NC(=N)C(C)(C)S1(=O)=O [Example 3, 5-fluoro-N-{4-fluoro-3-[(4R)-6-imino-2,4,7,7-tetramethyl-1,1-dioxido-1,2,5-thiadiazepan-4-yl]phenyl}pyridine-2-carboxamide]
Ki [1]: 54 nM
Ki [2, 3]: 13 nM

Cc1nc(C(=O)Nc2ccc(F)c([C@]3(C)CN(C)S(=O)(=O)C(C)(C)C(=N)N3)c2)c(C)o1 [Example 32, N-{4-fluoro-3-[(4R)-6-imino-2,4,7,7-tetramethyl-1,1-dioxido-1,2,5-thiadiazepan-4-yl]phenyl}-2,5-dimethyl-1,3-oxazole-4-carboxamide]
Ki [1]: 165 nM
Ki [2, 3]: 54 nM

COc1ccc(C(=O)Nc2ccc(F)c([C@]3(C)CN(C)S(=O)(=O)C(C)(C)C(=N)N3)c2)nc1 [Example 6, N-{4-fluoro-3-[(4R)-6-imino-2,4,7,7-tetramethyl-1,1-dioxido-1,2,5-thiadiazepan-4-yl]phenyl}-5-methoxypyridine-2-carboxamide]
Ki [1]: 33 nM
Ki [2, 3]: 44 nM

CN1C[C@@](C)(c2cc(NC(=O)c3ccn(C(F)F)n3)ccc2F)NC(=N)C(C)(C)S1(=O)=O [Example 2, 1-(difluoromethyl)-N-{4-fluoro-3-[(4R)-6-imino-2,4,7,7-tetramethyl-1,1-dioxido-1,2,5-thiadiazepan-4-yl]phenyl}-1H-pyrazole-3-carboxamide]
Ki [1]: 46 nM
Ki [2, 3]: 6 nM

CN1C[C@@](C)(c2cc(Nc3nccn4ccnc34)ccc2F)NC(=N)C(C)(C)S1(=O)=O [Example 44, (R)-4-(2-fluoro-5-(imidazo[1,2-a]pyrazin-8-ylamino)phenyl)-6-imino-2,4,7,7-tetramethyl-1,2,5-thiadiazepane 1,1-dioxide]
Ki [1]: 1350 nM
Ki ([2]; QSY7-[…]-Eu-amide substrate): 270 nM

COc1cnc(C(=O)Nc2ccc(F)c([C@]3(C)CN(C)S(=O)(=O)C(C)(C)C(=N)N3)c2)c(C)c1 [Example 9, N-{4-fluoro-3-[(4R)-6-imino-2,4,7,7-tetramethyl-1,1-dioxido-1,2,5-thiadiazepan-4-yl]phenyl}-5-methoxy-3-methylpyridine-2-carboxamide]
Ki [1]: 68 nM
Ki [2, 3]: 32 nM

CO[C@@H](C)C(=O)Nc1ccc(F)c([C@]2(C)CN(C)S(=O)(=O)C(C)(C)C(=N)N2)c1 [Example 34, (2S)-N-{4-fluoro-3-[(4R)-6-imino-2,4,7,7-tetramethyl-1,1-dioxido-1,2,5-thiadiazepan-4-yl]phenyl}-2-methoxypropanamide]
Ki [1]: 3060 nM
Ki [2, 3]: 1120 nM

CN1C[C@@](C)(c2cc(NC(=O)c3ccc(Cl)cn3)ccc2F)NC(=N)C(C)(C)S1(=O)=O [Example 7, 5-chloro-N-{4-fluoro-3-[(4R)-6-imino-2,4,7,7-tetramethyl-1,1-dioxido-1,2,5-thiadiazepan-4-yl]phenyl}pyridine-2-carboxamide]
Ki [2, 3]: 8 nM
